# From doi:10.1101/2021.04.08.439011v1 (biorxiv, 2021)
# Where two headings read alike, the source gives them in different places.
# How the values were obtained:
# DCAMKL2 = DCAMKL2 (Homo sapiens, UniProt Q8N568); settings: 1 µM; binder
# FLT3(D835H) = FLT3(D835H) (Homo sapiens, UniProt P36888, D835H); settings: 1 µM; binder
# ABL1(Q252H) = ABL1(Q252H) (Homo sapiens, UniProt P00519, Q252H); settings: 1 µM, binder
# WNK3 = WNK3 (Homo sapiens, UniProt Q9BYP7); settings: 1 µM; binder
# PIKFYVE = PIKFYVE (Homo sapiens, UniProt Q9Y2I7); settings: 1 µM; binder
# PRKG2 = PRKG2 (Homo sapiens, UniProt Q13237); settings: 1 µM; binder
# DCAMKL1 = DCAMKL1 (Homo sapiens, UniProt O15075); settings: 1 µM; binder
# EPHB1 = EPHB1 (Homo sapiens, UniProt P54762); settings: 1 µM; binder
# EPHB2 = EPHB2 (Homo sapiens, UniProt P29323); settings: 1 µM; binder
# CDK4-cyclinD1 = CDK4-cyclinD1 (Homo sapiens, UniProt P11802); settings: 1 µM; binder
# EPHA6 = EPHA6 (Homo sapiens, UniProt Q9UF33); settings: 1 µM; binder
# MST1 = MST1 (Homo sapiens, UniProt Q13043); settings: 1 µM; binder
# GRK7 = GRK7 (Homo sapiens, UniProt Q8WTQ7); settings: 1 µM; binder
# FLT3(D835Y) = FLT3(D835Y) (Homo sapiens, UniProt P36888, D835Y); settings: 1 µM; binder
# MEK2 = MEK2 (Homo sapiens, UniProt P36507); settings: 1 µM; binder
# LZK = LZK (Homo sapiens, UniProt O43283); settings: 1 µM; binder
# MET(Y1235D) = MET(Y1235D) (Homo sapiens, UniProt P08581, Y1235D); settings: 1 µM; binder
# ABL1(H396P) = ABL1(H396P) (Homo sapiens, UniProt P00519, H396P); settings: 1 µM, binder
# PKN1 = PKN1 (Homo sapiens, UniProt Q16512); settings: 1 µM; binder
# BMX = BMX (Homo sapiens, UniProt P51813); settings: 1 µM; binder
# MAP3K3 = MAP3K3 (Homo sapiens, UniProt Q99759); settings: 1 µM; binder
# FLT1 = FLT1 (Homo sapiens, UniProt P17948); settings: 1 µM; binder
# PRKCD = PRKCD (Homo sapiens, UniProt Q05655); settings: 1 µM; binder
# DRAK2 = DRAK2 (Homo sapiens, UniProt O94768); settings: 1 µM; binder
# AMPK-alpha2 = AMPK-alpha2 (Homo sapiens, UniProt P54646); settings: 1 µM; binder
# S6K1 = S6K1 (Homo sapiens, UniProt P23443); settings: 1 µM; binder
# MAP4K4 = MAP4K4 (Homo sapiens, UniProt O95819); settings: 1 µM; binder
# CSNK1G2 = CSNK1G2 (Homo sapiens, UniProt P78368); settings: 1 µM; binder
# JAK1 = JAK1 (Homo sapiens, UniProt P23458); settings: binder
# Sequence of JAK1 (P23458 whole entry): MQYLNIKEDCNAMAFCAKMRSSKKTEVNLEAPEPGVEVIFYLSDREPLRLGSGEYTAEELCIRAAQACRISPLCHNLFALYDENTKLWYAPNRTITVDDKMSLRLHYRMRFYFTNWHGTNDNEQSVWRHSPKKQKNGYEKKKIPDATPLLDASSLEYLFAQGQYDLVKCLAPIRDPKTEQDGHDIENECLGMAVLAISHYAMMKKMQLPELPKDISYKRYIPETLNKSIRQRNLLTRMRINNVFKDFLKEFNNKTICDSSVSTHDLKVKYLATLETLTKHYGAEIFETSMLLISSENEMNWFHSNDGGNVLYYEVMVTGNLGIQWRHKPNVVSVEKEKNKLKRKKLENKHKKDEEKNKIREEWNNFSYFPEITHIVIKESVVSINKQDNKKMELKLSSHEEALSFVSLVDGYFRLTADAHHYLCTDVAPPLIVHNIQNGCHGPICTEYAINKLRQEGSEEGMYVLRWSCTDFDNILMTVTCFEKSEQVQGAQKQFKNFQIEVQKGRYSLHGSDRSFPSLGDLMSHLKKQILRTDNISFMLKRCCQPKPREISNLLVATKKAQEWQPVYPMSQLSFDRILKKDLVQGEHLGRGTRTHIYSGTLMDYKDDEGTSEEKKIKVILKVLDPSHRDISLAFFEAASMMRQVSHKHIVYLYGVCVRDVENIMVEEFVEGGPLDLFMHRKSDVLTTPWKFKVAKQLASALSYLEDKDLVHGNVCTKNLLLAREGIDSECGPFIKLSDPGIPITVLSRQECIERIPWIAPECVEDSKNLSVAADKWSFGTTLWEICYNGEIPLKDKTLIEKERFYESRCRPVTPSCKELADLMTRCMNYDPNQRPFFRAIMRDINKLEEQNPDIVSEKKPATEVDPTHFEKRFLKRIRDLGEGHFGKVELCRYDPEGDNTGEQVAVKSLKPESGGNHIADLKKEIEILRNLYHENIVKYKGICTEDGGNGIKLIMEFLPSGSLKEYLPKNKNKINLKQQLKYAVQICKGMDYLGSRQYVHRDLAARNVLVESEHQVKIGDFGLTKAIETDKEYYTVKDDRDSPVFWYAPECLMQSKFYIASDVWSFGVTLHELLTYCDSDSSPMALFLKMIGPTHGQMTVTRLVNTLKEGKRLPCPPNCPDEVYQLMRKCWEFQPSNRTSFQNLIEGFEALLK
# Sequence of MEK2 (P36507 whole entry): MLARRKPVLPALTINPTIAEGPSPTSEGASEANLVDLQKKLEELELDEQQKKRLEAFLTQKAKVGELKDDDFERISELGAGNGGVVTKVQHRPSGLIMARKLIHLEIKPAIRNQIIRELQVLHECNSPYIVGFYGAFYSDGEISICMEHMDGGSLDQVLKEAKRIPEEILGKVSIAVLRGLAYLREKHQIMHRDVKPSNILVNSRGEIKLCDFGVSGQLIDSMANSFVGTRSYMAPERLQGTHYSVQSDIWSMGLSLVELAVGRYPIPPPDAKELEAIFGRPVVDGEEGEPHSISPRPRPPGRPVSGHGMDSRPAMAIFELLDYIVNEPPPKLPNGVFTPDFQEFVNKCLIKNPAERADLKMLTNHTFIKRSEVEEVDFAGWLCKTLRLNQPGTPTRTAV
# Sequence of MAP4K4 (O95819 whole entry): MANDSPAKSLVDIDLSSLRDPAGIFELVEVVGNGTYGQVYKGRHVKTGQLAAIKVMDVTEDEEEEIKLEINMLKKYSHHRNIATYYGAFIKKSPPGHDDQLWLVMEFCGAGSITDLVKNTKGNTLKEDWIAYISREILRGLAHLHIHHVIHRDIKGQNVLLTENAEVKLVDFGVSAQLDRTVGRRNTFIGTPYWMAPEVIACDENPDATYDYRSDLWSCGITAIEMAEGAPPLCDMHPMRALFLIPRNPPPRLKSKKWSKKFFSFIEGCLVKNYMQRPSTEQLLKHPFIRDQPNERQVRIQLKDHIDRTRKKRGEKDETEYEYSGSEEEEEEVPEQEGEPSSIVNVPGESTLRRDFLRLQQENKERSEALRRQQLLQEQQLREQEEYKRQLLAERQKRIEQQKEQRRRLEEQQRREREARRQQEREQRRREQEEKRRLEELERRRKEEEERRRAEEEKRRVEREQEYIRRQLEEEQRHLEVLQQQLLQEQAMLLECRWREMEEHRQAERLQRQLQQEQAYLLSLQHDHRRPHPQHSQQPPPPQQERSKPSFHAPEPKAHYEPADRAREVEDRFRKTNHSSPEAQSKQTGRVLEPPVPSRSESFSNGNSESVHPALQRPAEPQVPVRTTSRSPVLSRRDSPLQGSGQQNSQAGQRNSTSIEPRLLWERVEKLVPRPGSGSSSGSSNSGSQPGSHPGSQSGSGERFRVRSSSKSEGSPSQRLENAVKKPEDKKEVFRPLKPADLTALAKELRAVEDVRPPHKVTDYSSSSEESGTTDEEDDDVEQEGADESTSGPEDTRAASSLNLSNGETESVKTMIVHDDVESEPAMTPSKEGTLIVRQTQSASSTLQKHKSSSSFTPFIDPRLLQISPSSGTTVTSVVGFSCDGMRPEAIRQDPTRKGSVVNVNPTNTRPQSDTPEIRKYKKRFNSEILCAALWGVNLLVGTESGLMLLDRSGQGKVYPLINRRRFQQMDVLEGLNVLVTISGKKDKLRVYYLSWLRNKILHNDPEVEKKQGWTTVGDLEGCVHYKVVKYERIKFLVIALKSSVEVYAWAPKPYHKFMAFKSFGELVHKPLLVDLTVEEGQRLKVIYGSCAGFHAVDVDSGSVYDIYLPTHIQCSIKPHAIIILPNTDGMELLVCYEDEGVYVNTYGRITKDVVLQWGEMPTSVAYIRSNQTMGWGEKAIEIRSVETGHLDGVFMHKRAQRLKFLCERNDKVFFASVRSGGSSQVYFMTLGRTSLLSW
# Sequence of EPHA6 (Q9UF33 whole entry): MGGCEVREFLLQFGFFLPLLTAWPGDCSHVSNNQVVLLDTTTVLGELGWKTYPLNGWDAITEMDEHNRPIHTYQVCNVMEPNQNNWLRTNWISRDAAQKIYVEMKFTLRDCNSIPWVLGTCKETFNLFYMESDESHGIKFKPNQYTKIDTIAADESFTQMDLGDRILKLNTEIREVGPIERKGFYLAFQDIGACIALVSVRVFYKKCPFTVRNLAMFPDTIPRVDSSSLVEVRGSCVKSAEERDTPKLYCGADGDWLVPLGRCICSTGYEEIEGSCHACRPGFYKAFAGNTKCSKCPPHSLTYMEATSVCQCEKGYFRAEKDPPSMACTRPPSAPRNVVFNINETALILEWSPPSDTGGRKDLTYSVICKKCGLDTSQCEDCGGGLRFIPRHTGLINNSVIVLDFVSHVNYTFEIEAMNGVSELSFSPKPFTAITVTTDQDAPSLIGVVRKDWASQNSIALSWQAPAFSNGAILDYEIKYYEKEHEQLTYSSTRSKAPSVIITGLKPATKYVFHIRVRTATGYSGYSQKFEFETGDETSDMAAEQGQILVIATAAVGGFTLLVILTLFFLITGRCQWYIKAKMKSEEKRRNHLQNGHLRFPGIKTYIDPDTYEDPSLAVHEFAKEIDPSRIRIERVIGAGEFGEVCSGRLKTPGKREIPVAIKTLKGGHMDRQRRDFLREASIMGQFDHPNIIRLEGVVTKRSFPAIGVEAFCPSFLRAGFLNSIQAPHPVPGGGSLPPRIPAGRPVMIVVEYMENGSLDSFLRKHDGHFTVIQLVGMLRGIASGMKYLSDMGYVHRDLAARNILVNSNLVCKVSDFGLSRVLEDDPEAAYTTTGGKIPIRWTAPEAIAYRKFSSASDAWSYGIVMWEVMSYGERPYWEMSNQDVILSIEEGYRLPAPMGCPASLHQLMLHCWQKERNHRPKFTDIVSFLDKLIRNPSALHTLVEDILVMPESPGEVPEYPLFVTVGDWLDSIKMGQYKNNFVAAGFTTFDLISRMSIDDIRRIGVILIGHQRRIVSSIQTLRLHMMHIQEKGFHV
# Sequence of MAP3K3 (Q99759 whole entry): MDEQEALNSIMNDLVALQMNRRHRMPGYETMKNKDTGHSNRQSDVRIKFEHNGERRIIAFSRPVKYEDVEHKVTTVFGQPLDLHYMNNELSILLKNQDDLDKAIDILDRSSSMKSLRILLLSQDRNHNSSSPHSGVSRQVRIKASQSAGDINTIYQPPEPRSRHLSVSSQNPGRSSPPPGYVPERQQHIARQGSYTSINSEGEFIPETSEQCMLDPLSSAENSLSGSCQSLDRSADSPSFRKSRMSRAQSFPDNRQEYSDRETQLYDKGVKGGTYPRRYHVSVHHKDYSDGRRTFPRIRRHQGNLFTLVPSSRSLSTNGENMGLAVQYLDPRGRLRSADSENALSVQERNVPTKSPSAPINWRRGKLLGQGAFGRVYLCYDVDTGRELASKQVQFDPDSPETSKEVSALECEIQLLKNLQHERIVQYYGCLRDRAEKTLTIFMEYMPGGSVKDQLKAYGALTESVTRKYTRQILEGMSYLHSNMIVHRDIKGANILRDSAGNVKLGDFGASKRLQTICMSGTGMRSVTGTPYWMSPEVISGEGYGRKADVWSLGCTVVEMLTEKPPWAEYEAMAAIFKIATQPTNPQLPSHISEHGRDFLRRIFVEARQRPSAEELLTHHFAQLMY
# Sequence of DRAK2 (O94768 whole entry): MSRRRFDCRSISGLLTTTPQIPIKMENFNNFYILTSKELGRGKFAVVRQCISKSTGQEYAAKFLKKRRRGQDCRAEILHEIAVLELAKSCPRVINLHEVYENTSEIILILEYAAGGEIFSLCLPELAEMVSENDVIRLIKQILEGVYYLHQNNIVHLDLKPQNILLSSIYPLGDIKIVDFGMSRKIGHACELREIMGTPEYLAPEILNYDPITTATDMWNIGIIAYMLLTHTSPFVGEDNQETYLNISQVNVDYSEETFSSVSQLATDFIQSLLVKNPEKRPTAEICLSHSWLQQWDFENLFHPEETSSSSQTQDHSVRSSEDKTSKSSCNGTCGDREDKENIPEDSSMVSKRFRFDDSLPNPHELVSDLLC
smiles,measurement,setting,value
"CNc1ncc2cc(-c3ccc(-c4cccc(C)n4)cc3Cl)c(=O)n(C[C@H]3OC[C@H](N)CO3)c2n1 [compound 6, G-5555]",Percent Control,DCAMKL2,51%
same,Percent Control,FLT3(D835H),99%
same,Percent Control,ABL1(Q252H); nonphosphorylated,75%
same,Percent Control,ABL1(Q252H); phosphorylated,100%
same,Percent Control,WNK3,100%
same,Percent Control,PIKFYVE,100%
same,Percent Control,PRKG2,94%
same,Percent Control,DCAMKL1,79%
same,Percent Control,EPHB1,100%
same,Percent Control,EPHB2,79%
same,Percent Control,CDK4-cyclinD1,99%
same,Percent Control,EPHA6,100%
same,Percent Control,MST1,51%
same,Percent Control,GRK7,89%
same,Percent Control,FLT3(D835Y),81%
same,Percent Control,MEK2,1.4%
same,Percent Control,LZK,100%
same,Percent Control,MET(Y1235D),93%
same,Percent Control,ABL1(H396P); nonphosphorylated,56%
same,Percent Control,ABL1(H396P); phosphorylated,94%
same,Percent Control,PKN1,92%
same,Percent Control,BMX,100%
same,Percent Control,MAP3K3,23%
same,Percent Control,FLT1,100%
same,Percent Control,PRKCD,100%
same,Percent Control,DRAK2,100%
same,Percent Control,AMPK-alpha2,47%
same,Percent Control,S6K1,58%
same,Percent Control,MAP4K4,100%
same,Percent Control,CSNK1G2,83%
same,Percent Control,JAK1; JH1 domain catalytic,100%
same,Percent Control,"JAK1; JH2 domain pseudokinase, 1 µM",92%
